Patent publication US10828253B2, “Composition for injection” (HK INNO.N CORPORATION, priority 2017, dated 2020)

Assay: water solubility of the compound of Formula 1
Type: physicochemical
Method: However, the compound has a very low water solubility (0.02 mg/ml, pH 6.8), which increases (0.7 mg/ml, pH 3.0) under acid conditions, but not enough to have a significant effect. It is water insoluble and has a very low solubility, in particular, under neutral or higher pH environments, so it has a much difficulty in being formulated into preparations through its dissolution and stabilization in aqueous solutions. Also, its degradation products are increased under acid conditions, thus leading to poor stability and causing a restriction on selection of salts. Furthermore, in case of using solubilizers such as surfactants, etc., to improve the solubility, it requires an excessive amount of excipients, thus causing difficulty.

## Cc1nc2c(O[C@H]3CCOc4cc(F)cc(F)c43)cc(C(=O)N(C)C)cc2[nH]1 [Formula 1, (S)-4-((5,7-difluorochroman-4-yl)oxy)-N,N-2-trimethyl-1H-benzo[d]imidazole-6-carboxamide]
Aqueous buffer, pH 3.0, acid conditions
  solubility: 700 µg/mL
pH 6.8, aqueous buffer
  solubility: 20 µg/mL
